Literature values in US20170094967A1, “OIL PALM FRUIT APPLICATION METHODS” (Valent BioSciences Corporation, priority 2015, published 2017).

Test system: oil palms
Conditions: applied before harvest directly to the fruit

Row | Compound | oil yield of oil palm fruit
1 | NCCO/C=C/[C@H](N)C(=O)O (stereo in doubt) [AVG, [S]-trans-2-amino-4-(2-aminoethoxy)-3-butenoic acid] | increases the oil yield
2 | CC1=CC1 [1-MCP, 1-methylcyclopropene] | increases the oil yield
